From article PMC9524145, “Open channel block of Kv1.5 channels by HMQ1611” (Frontiers in Pharmacology, 2022)

How the values were obtained:
Type in all cases: cell-based
[1] = molecular target: T1, wild-type (WT) hKv1.5 (KCNA5) channel (Homo sapiens, UniProt P22460); assay: whole-cell patch-clamp of wild-type hKv1.5 current in transfected CHO cells
T1 construct: Full-length cDNA encoding wild-type (WT) hKv1.5 (KCNA5) subcloned into the pcDNA3.1 expression vector; expressed in transfected cells; host or cells: CHO cells, transient transfection (pcDNA3.1), GFP cDNA co-transfected as a separate marker
Description: Chinese hamster ovary (CHO) cells donated by Dr. Takeru Makiyama (Kyoto University Graduate School of Medicine, Japan) were cultured in Dulbecco’s modified Eagle’s medium/Ham’s F-12 (DMEM/F-12) medium supplemented with 10% fetal bovine serum and antibiotics (100 IU/ml penicillin and 100 μg/ml streptomycin) in a humidified atmosphere with 5% CO2 and 95% air at 37°C. Cells were passaged every 3–4 days with trypsin–EDTA, and a portion of the cells was seeded onto glass cover slips (5 × 3 mm^2) for subsequent transfection.
(§1) Full-length cDNA encoding wild-type (WT) hKv1.5 (KCNA5) subcloned into the pcDNA3.1 expression vector was kindly provided by Dr. David Fedida (University of British Columbia, Canada). All hKv1.5 mutants (T462C, H463C, T479A, T480A, R487V, A501V, I502A, V505A, I508A, A509G, L510A, V512A, and V516A cDNAs) were constructed using a QuickChange II XL site-directed mutagenesis kit according to the manufacturer’s instructions (Stratagene, La Jolla, CA, USA) and subcloned into the pcDNA3.1. All mutants were fully sequenced (ABI3100x; Applied Biosystems, Foster City, CA, USA) to ensure fidelity.
(§2) WT or mutant hKv1.5 cDNA was transiently transfected into CHO cells together with green fluorescent protein (GFP) cDNA (0.5 μg WT or mutant hKv1.5 + 0.5 μg GFP) using Lipofectamine (Invitrogen Life Technologies, Carlsbad, CA, USA). Patch-clamp experiments were conducted on GFP-positive cells 48 h after transfection.
(§3) Kv1.5 currents were recorded using an EPC-8 patch-clamp amplifier (HEKA, Lambrecht, Germany) at 25°C. The data were low-pass filtered at 1 kHz, acquired at 5 kHz through an LIH-1600 analogue-to-digital converter (HEKA), and stored on a hard disc drive using Pulse/PulseFit software (HEKA). For experiments to measure the activation time course of hKv1.5 currents, the data were low-pass filtered at 10 kHz and sampled at 50 kHz. […] Cells attached to glass cover slips were transferred to a recording chamber (0.5 ml in volume) mounted on the stage of an inverted microscope (ECLIPSE TE2000-U, Nikon, Tokyo, Japan) and perfused continuously with Tyrode solution at a flow rate of 1 ml/min.
hKv1.5 channel currents were elicited by applying 300 ms depolarizing steps from a holding potential of -80 mV to various levels of -50 mV to +50 mV in 10 mV steps with a return potential of -40 mV, and each stimulus interval was longer than 10 s. Voltage-dependent activation of hKv1.5 channels was assessed by fitting the normalized I–V relations of the tail currents to a Boltzmann equation: Itail=1/(1+exp((V1/2−Vm)/k)), (1) where I tail is the tail current amplitude normalized with reference to the maximum value measured at +50 mV, V 1/2 is the voltage at half-maximal activation, V m is the test potential, and k is the slope factor.
(§4) The concentration–response curve for inhibition of hKv1.5 current by HMQ1611 was drawn by a least-squares fit of the Hill equation: %Control=1/(1+(IC50/[D])^nH), (2) where % Control represents the current in presence of the drug normalized with reference to the control amplitude (expressed as a percentage), IC50 is the concentration of HMQ1611 causing a half-maximal inhibition, nH is the Hill coefficient, and [D] is the drug concentration.
The apparent rate constants for binding (k +1) and unbinding (k -1) were obtained by fitting the equation: τD=1/(k+1[D]+k−1), (3) where τD is the drug-induced time constant, which was calculated from single exponential fits to the traces of current decay during the depolarizing step to +30 mV.
The apparent dissociation constant K D is expressed as kD=k−1/k+1. (4)
Deactivation kinetics of hKv1.5 were determined by fitting a single exponential function to the tail current trace (obtained by depolarizing a cell to +30 mV for 300 ms, followed by a repolarizing pulse to -40 mV).
Normal Tyrode solution contained 140 mM NaCl, 5.4 mM KCl, 1.8 mM CaCl2, 0.5 mM MgCl2, 0.33 mM NaH2PO4, 5.5 mM glucose, and 5.0 mM HEPES (pH adjusted to 7.4 with NaOH). […]

[2] = molecular target: T2, hKv1.5 T480A mutant channel (Homo sapiens, UniProt P22460, T480A); assay: whole-cell patch-clamp of T480A mutant hKv1.5 current in CHO cells
T2 construct: Full-length cDNA encoding wild-type (WT) hKv1.5 (KCNA5) subcloned into the pcDNA3.1 expression vector; expressed in transfected cells; host or cells: CHO cells, transient transfection (pcDNA3.1), GFP cDNA co-transfected as a separate marker
From the text: as §1
(§5) WT or mutant hKv1.5 cDNA was transiently transfected into CHO cells together with green fluorescent protein (GFP) cDNA (0.5 μg WT or mutant hKv1.5 + 0.5 μg GFP) using Lipofectamine (Invitrogen Life Technologies, Carlsbad, CA, USA). […]
(§6) Kv1.5 currents were recorded using an EPC-8 patch-clamp amplifier (HEKA, Lambrecht, Germany) at 25°C. […]
as §4, with “concentration. […]” for “concentration.”

[3] = molecular target: T3, hKv1.5 V516A mutant channel (Homo sapiens, UniProt P22460, V516A); assay: whole-cell patch-clamp of V516A mutant hKv1.5 current in CHO cells
T3 construct: Full-length cDNA encoding wild-type (WT) hKv1.5 (KCNA5) subcloned into the pcDNA3.1 expression vector; expressed in transfected cells; host or cells: CHO cells, transient transfection (pcDNA3.1), GFP cDNA co-transfected as a separate marker
From the text: as §1, §5, §6
as §4, with “concentration. […]” for “concentration.”

[4] = molecular target: T4, hKv1.5 V505A mutant channel (Homo sapiens, UniProt P22460, V505A); assay: whole-cell patch-clamp of V505A mutant hKv1.5 current in CHO cells
T4 construct: Full-length cDNA encoding wild-type (WT) hKv1.5 (KCNA5) subcloned into the pcDNA3.1 expression vector; expressed in transfected cells; host or cells: CHO cells, transient transfection (pcDNA3.1), GFP cDNA co-transfected as a separate marker
From the text: as §1, §2, §3
as §4, with “concentration. […]” for “concentration.”

[5] = molecular target: T5, hKv1.5 T479A mutant channel (Homo sapiens, UniProt P22460, T479A); assay: whole-cell patch-clamp of T479A mutant hKv1.5 current in CHO cells; settings: 5 μM HMQ1611, late current at +30 mV, n = 8, p < 0.01 vs. WT
T5 construct: Full-length cDNA encoding wild-type (WT) hKv1.5 (KCNA5) subcloned into the pcDNA3.1 expression vector; expressed in transfected cells; host or cells: CHO cells, transient transfection (pcDNA3.1), GFP cDNA co-transfected as a separate marker
From the text: as §1, §5, §6
as §4, with “concentration. […]” for “concentration.”

[6] = molecular target: T6, hKv1.5 V512A mutant channel (Homo sapiens, UniProt P22460, V512A); assay: whole-cell patch-clamp of V512A mutant hKv1.5 current in CHO cells; settings: 5 μM HMQ1611, late current at +30 mV, n = 6, p < 0.01 vs. WT
T6 construct: Full-length cDNA encoding wild-type (WT) hKv1.5 (KCNA5) subcloned into the pcDNA3.1 expression vector; expressed in transfected cells; host or cells: CHO cells, transient transfection (pcDNA3.1), GFP cDNA co-transfected as a separate marker
From the text: as §1, §5, §6
as §4, with “concentration. […]” for “concentration.”

[7] = molecular target: T7, hKv1.5 I508A mutant channel (Homo sapiens, UniProt P22460, I508A); assay: whole-cell patch-clamp of I508A mutant hKv1.5 current in CHO cells
T7 construct: Full-length cDNA encoding wild-type (WT) hKv1.5 (KCNA5) subcloned into the pcDNA3.1 expression vector; expressed in transfected cells; host or cells: CHO cells, transient transfection (pcDNA3.1), GFP cDNA co-transfected as a separate marker
From the text: as §1, §2, §3
as §4, with “concentration. […]” for “concentration.”

[8] = molecular target: T8, hKv1.5 L510A mutant channel (Homo sapiens, UniProt P22460, L510A); assay: whole-cell patch-clamp of L510A mutant hKv1.5 current in CHO cells; settings: 5 μM HMQ1611, late current at +30 mV, n = 6, p < 0.01 vs. WT
T8 construct: Full-length cDNA encoding wild-type (WT) hKv1.5 (KCNA5) subcloned into the pcDNA3.1 expression vector; expressed in transfected cells; host or cells: CHO cells, transient transfection (pcDNA3.1), GFP cDNA co-transfected as a separate marker
From the text: as §1, §5, §6
as §4, with “concentration. […]” for “concentration.”

[9] = from τD of current decay at +30 mV vs drug concentration

T1 sequence (P22460 whole entry): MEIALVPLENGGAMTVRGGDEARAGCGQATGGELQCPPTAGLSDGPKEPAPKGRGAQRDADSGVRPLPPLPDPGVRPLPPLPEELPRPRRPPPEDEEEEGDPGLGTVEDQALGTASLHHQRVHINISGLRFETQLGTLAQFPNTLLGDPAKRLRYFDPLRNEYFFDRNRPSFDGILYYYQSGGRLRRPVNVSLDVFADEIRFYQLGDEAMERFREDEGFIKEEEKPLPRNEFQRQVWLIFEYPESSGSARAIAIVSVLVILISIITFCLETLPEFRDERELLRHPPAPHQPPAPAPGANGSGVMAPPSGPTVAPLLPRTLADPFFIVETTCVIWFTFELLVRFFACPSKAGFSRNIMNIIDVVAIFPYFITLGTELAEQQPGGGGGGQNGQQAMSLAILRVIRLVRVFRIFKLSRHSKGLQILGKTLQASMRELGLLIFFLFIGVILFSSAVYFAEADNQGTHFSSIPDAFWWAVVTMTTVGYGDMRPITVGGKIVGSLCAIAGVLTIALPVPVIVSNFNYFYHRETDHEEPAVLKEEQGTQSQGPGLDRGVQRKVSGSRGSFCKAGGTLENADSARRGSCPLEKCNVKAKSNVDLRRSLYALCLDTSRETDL
T7 sequence (P22460 whole entry I508A): as the sequence (P22460 whole entry) above, with I508A counted along it
T4 sequence (P22460 whole entry V505A): as the sequence (P22460 whole entry) above, with V505A counted along it
T3 sequence (P22460 whole entry V516A): as the sequence (P22460 whole entry) above, with V516A counted along it
T2 sequence (P22460 whole entry T480A): as the sequence (P22460 whole entry) above, with T480A counted along it
T8 sequence (P22460 whole entry L510A): as the sequence (P22460 whole entry) above, with L510A counted along it
T5 sequence (P22460 whole entry T479A): as the sequence (P22460 whole entry) above, with T479A counted along it
T6 sequence (P22460 whole entry V512A): as the sequence (P22460 whole entry) above, with V512A counted along it

time to start of inhibition on exposure ([1]; 5 μM HMQ1611): 5 to 10 s
time to steady state inhibition ([1]; 5 μM HMQ1611): ≤ 3 min
peak current amplitude at the first depolarizing step ([1]; 5 μM HMQ1611, 1 Hz train, control 6.11 ± 0.99 nA, n = 7, p > 0.05): 5.97 ± 0.98 nA
decrease of peak amplitude of hKv1.5 current at the 20th pulse vs first pulse ([1]; 5 μM HMQ1611, 1 Hz, control 18.29 ± 2.20%, n = 7): 46.57 ± 4.19%
peak current amplitude at the first depolarizing step ([1]; 5 μM HMQ1611, 2 Hz train, control 5.82 ± 1.14 nA, n = 6, p > 0.05): 5.67 ± 0.99 nA
decrease of peak amplitude of hKv1.5 current at the 20th pulse vs first pulse ([1]; 5 μM HMQ1611, 2 Hz, control 32.73 ± 1.74%, n = 6): 66.47 ± 2.38%
steady state level of inhibition of hKv1.5 current ([1]; 5 μM HMQ1611, representative time course, end of 300 ms step to +30 mV, within 3 min): approximately 86 % inhibition
activation time constant ([1]; 5 μM HMQ1611, step to +30 mV, control 1.50 ± 0.25 ms, n = 7, p > 0.05): 1.47 ± 0.18 ms
inhibition at 5 µM ([1]; CHO, WT, 5 μM HMQ1611, late current at end of 300 ms step to +30 mV, n = 7): 83.9 ± 4.06%
IC50 ([1]; WT, late current at end of 300 ms depolarizing step to +30 mV, CHO cells, Hill fit, n = 7, read-out: IC50 for inhibition of hKv1.5 current): 2.07 ± 0.21 µM
recovery of hKv1.5 current after washout ([1]; after 5 μM HMQ1611, within 10 min after washout with normal Tyrode solution): 94.64 % of the control value
Kd ([1]; apparent dissociation constant, +30 mV, read-out: KD value derived by (k-1)/(k+1)): 4.48 µM
slope factor k of Boltzmann activation fit ([1]; during exposure to 5 μM HMQ1611, control 14.09, 6 cells, p < 0.01 vs. control): 1.34
V1/2 (voltage at half-maximal activation, tail currents) ([1]; during exposure to 5 μM HMQ1611, control -0.76 mV, 6 cells, p < 0.01 vs. control): -29.9 mV
apparent binding rate constant (k+1) [1, 9]: 6.65e+06 M⁻¹ s⁻¹
apparent unbinding rate constant (k-1) [1, 9]: 29.9 s⁻¹
deactivation time constant ([1]; in presence of 5 μM HMQ1611, tail current at -40 mV after +30 mV, control 14.8 ± 1.4 ms, n = 10, p > 0.05): 13.1 ± 2.3 ms
effect of intracellular dialysis on Kv1.5 currents ([1]; intracellular dialysis of cells with 5 μM HMQ1611 for 4 min after whole-cell configuration): did not change the Kv1.5 currents
inhibition at 5 µM ([2]; CHO, T480A, 5 μM HMQ1611, late current at +30 mV, n = 7, p < 0.01 vs. WT): 15.3 ± 2.5%
fold decrease in blocking potency compared with IC50 of WT channel ([2]; T480A vs WT): 7 fold
inhibition at 5 µM ([3]; CHO, V516A, 5 μM HMQ1611, late current at +30 mV, n = 6, p < 0.01 vs. WT): 44.6 ± 5.48%
fold decrease in blocking potency compared with IC50 of WT channel ([3]; V516A vs WT): 4 fold
inhibition at 5 µM ([4]; CHO, V505A, 5 μM HMQ1611, late current at +30 mV, n = 7, p < 0.01 vs. WT): 44 ± 4.4%
fold decrease in blocking potency compared with IC50 of WT channel ([4]; V505A vs WT): 3 fold
IC50 ([4]; V505A, Hill fit, n = 7): 6.44 ± 0.18 µM
inhibition at 5 µM [5]: 51.1 ± 4.99%
inhibition at 5 µM [6]: 47.2 ± 3.86%
inhibition at 5 µM ([7]; CHO, I508A, 5 μM HMQ1611, late current at +30 mV, n = 7, p < 0.01 vs. WT): 16.2 ± 2.09%
fold decrease in blocking potency compared with IC50 of WT channel ([7]; I508A vs WT): 5 fold
IC50 ([7]; I508A, Hill fit, n = 7): 10.5 ± 0.41 µM
inhibition at 5 µM [8]: 11.2 ± 2.24%
SMILES: CNC(=O)c1ccc(OC)c(OCC(=O)Nc2ccc(F)c(Cl)c2)c1-c1c(C(=O)NC)ccc(OC)c1OCC(=O)Nc1ccc(F)c(Cl)c1 [HMQ1611]
